Results as given in patent US8361988B2, “Nucleoside and nucleotide analogues with quaternary carbon centers and methods of use” (Institut de Recherches Cliniques de Montreal, priority 2007, dated 2013).

How the values were obtained:
[1] = target: human dCK (Homo sapiens, UniProt P27707); test: Phosphorylation assay (spectrophotometric coupled-enzyme), human dCK; format: biochemical; settings: substrate at 100 μM; 37° C.; 1 mM ATP; triplicate
Experimental: (§1) Compounds of the invention were also tested in a phosphorylation assay using three deoxynucleoside kinases. […] The compounds were at substrate concentration of 100 μM.
(§2) Kinetic assay. […] Briefly, the individual nucleosides at 100 μM were prepared in reaction buffer containing 50 mM Tris-HCl (pH 7.5), 0.1 M KCl, 5 mM MgCl2, 1 mM DTT, 1 mM ATP, 0.21 mM phosphoenolpyruvate, 0.18 mM NADH, and 2 units/ml pyruvate kinase and 2 units/ml lactate dehydrogenase (Roche Biochemicals, Indianapolis, Ind.). Assays were performed at 37° C. by measuring the absorbance change at 340 nm. The enzyme amount was adjusted to limit NADH turnover to 10% over the time of the experiment. All experiments were performed in triplicate.

[2] = target: T1, Drosophila melanogaster dNK (Drosophila melanogaster, UniProt Q9XZT6); test: Phosphorylation assay (spectrophotometric coupled-enzyme), D. melanogaster dNK; format: biochemical; settings: substrate at 100 μM; 37° C.; 1 mM ATP; triplicate
T1 sequence (Q9XZT6 1-250): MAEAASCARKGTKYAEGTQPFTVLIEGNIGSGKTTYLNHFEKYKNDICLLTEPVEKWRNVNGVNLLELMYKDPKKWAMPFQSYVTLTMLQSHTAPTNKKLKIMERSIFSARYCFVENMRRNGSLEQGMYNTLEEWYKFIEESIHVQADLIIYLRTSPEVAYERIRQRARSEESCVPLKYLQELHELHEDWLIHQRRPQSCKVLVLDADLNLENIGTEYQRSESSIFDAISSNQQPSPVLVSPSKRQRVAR
Experimental: as §1, §2

[3] = in vitro; settings: human, NCI H1395 cells
[4] = in vitro; settings: human, NCI H2052 cells
[5] = MTT cell proliferation assay, ZR-75-1; format: cell-based; settings: human, ZR-75-1 cells, concentration causing 50% cell death of initial cell count over 24 hours, 1% DMSO
Experimental: (§3) The antitumor activities of the compounds of the invention were evaluated by a cellular proliferation assay. The MTT [3-(4,5-dimethylthiazol-2-yl)-2,5-diphenyltetrazolium bromide] cell proliferation assay, first described by Mosmann (Mosmann T., “Rapid colorimetric assay for cellular growth and survival: application to proliferation and cytotoxicity assays,” J. Immunol. Methods 1983 Dec. 16; 65(1-2):55-63, and incorporated by reference in its entirety) is based on the ability of active mitochondrial reductase enzymes from viable cells to cleave the tetrazolium rings of the pale yellow MTT. The cleavage reaction form a purple formazan crystals which is largely impermeable to cell membranes resulting in its accumulation within healthy cells. Solubilisation of the cells by addition of a detergent liberates and solubilizes the formazan crystals. The number of surviving cells is directly proportional to the level of the formazan product created. The color can then be quantified spectrophotometrically. The production of purple formazan in cells treated with a compound is measured relative to the production in control cells, and dose-response curves can be generated. This assay measures the cell proliferation rate and conversely, when metabolic events lead to apoptosis or necrosis, the reduction in cell viability, thus also allowing the evaluation of the cytotoxicity of the analogues synthesized in the laboratory.
(§4) For Tables 3 and 4, the assays were performed with 1% DMSO. The abbreviation “n.d.” means “not determined.” The values EC50, CC50, and SI have the following definitions.
(§5) Cell growth equals total cell count without any inhibitor after 72 hours minus initial cell count. Total cell counts after 72 hrs of growth range from 230 to 346% of initial cell counts depending on the cell line.
(§6) Total cell counts after 24 hrs of growth range from 103 to 109% of initial cell counts depending on the cell line.
(§7) SI: Selectivity Index is the ratio CC50/EC50.

[6] = test system: ZR-75-1; test: MTT cell proliferation assay, ZR-75-1; format: cell-based; settings: Homo sapiens, concentration reducing cell growth by 50% after 72 hours, 1% DMSO
Experimental: as §3, §4, §5, §6, §7

[7] = MTT cell proliferation assay, PFSK-1; format: cell-based; settings: human, PFSK-1 cells, concentration causing 50% cell death of initial cell count over 24 hours, 1% DMSO
Experimental: (§8) The antitumor activities of the compounds of the invention were evaluated by a cellular proliferation assay. […] The cleavage reaction form a purple formazan crystals which is largely impermeable to cell membranes resulting in its accumulation within healthy cells. Solubilisation of the cells by addition of a detergent liberates and solubilizes the formazan crystals. The number of surviving cells is directly proportional to the level of the formazan product created. The color can then be quantified spectrophotometrically. The production of purple formazan in cells treated with a compound is measured relative to the production in control cells, and dose-response curves can be generated. This assay measures the cell proliferation rate and conversely, when metabolic events lead to apoptosis or necrosis, the reduction in cell viability, thus also allowing the evaluation of the cytotoxicity of the analogues synthesized in the laboratory.
as §4
(§9) Cell growth equals total cell count without any inhibitor after 72 hours minus initial cell count.
as §7

[8] = test system: PFSK-1; test: MTT cell proliferation assay, PFSK-1; format: cell-based; settings: Homo sapiens, concentration reducing cell growth by 50% after 72 hours, 1% DMSO
Experimental: as §8, §4, §9, §7

[9] = in vitro; settings: human, MOLT-4 cells
[10] = MTT cell proliferation assay, Panc 02.03; format: cell-based; settings: human, Panc 02.03 cells, concentration causing 50% cell death of initial cell count over 24 hours, 1% DMSO
Experimental: as §8, §4, §9, §7

[11] = test system: Panc 02.03; test: MTT cell proliferation assay, Panc 02.03; format: cell-based; settings: Homo sapiens, concentration reducing cell growth by 50% after 72 hours, 1% DMSO
Experimental: as §8, §4, §9, §7

human dCK, sequence (P27707 whole entry): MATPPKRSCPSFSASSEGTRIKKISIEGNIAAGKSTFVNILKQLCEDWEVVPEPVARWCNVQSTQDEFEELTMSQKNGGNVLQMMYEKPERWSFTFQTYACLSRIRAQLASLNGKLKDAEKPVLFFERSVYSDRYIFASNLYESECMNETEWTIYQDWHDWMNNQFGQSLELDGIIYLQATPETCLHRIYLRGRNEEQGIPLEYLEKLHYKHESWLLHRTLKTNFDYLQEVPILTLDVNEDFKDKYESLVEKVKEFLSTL

Row | Structure (SMILES) | Human dCK kinase substrate phosphorylation [1] | D. melanogaster dNK substrate phosphorylation [2] | CC50 at 24 h [3] | CC50 at 24 h [4] | CC50 at 24 h [5] | EC50 ([6]; ZR-75-1, 72 h) | CC50 at 24 h [7] | EC50 ([8]; PFSK-1, 72 h) | EC50 [6] | CC50 at 24 h [9] | CC50 at 24 h [10] | EC50 [11] | EC50 [8]
1 | COC(=O)c1cn([C@H]2S[C@@H](CO)C(O)[C@@H]2O)nn1 (stereo partly shown) [LCB-1013] | <1 10^−3 μmol/min mg | <0.1 10^6 μmol/min mg | – | – | – | – | – | – | – | – | – | – | –
2 | CC1(CO)C[C@H](n2ccc(N)nc2=O)O[C@@H]1CO (mixture of isomers) [LCB-1011] | 12 10^−3 μmol/min mg | 0.35 10^6 μmol/min mg | > 500 µM | > 500 µM | > 500 µM | > 500 µM | > 500 µM | > 500 µM | – | – | – | – | –
3 | Nc1ccn([C@@H]2O[C@H](CO)[C@@H](O)[C@@H]2O)c(=O)n1 [Cytarabine, reference compound] | – | – | 428 µM | > 500 µM | > 500 µM | – | > 500 µM | – | > 500 µM | > 500 µM | > 500 µM | 300 µM | 360 µM
4 | CC1(C(N)=O)CC(n2ccc(N)nc2=O)O[C@@H]1CO (mixture of isomers) [LCB-1018] | 63 10^−3 μmol/min mg | 0.2 10^6 μmol/min mg | > 500 µM | > 500 µM | > 500 µM | > 500 µM | > 500 µM | > 500 µM | – | – | > 500 µM | > 500 µM | –
5 | CC1(CO)CC(n2ccc(N)nc2=O)O[C@@H]1CO (mixture of isomers) [LCB-1012] | 17 10^−3 μmol/min mg | 5.94 10^6 μmol/min mg | > 500 µM | > 500 µM | > 500 µM | > 500 µM | > 500 µM | > 500 µM | – | – | – | – | –
